Results from the supplement of paper PMC6045584.

Legend:
Assay in all cases: area under dose-response curve of surviving fraction (unscaled, Aref=0) (surviving fraction x log10(nM)); higher = more resistant
Conditions in all cases: exposure time: 5 days; dose range 0.5-1000 nM
[1] = compound: C=CCNC1=C2C[C@@H](C)C[C@H](OC)[C@H](O)[C@@H](C)/C=C(\C)[C@H](OC(N)=O)[C@@H](OC)/C=C\C=C(/C)C(=O)NC(=CC1=O)C2=O [17-AAG]
In short: (§1)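 Tumour cell lines in 384-well plates were exposed for five days to eight inhibitor concentrations from 0.5 to 1000 nM. Viability was read by CellTiter-Glo luminescence, normalised to DMSO-only wells, in three screens per line. Dose-response survival curves were fitted to surviving fractions by 3-parameter logistic regression in the drc R package. Area under the curve is the unscaled activity area (Aref = 0) over log10 dose.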

[2] = compound: COc1cc2c(cc1O)CC[C@@H]1[C@@H]2CC[C@]2(C)[C@@H](O)CC[C@@H]12 [2-METHOXYESTRADIOL]
In short: as §1

[3] = compound: Nc1ncn([C@H]2C[C@H](O)[C@@H](CO)O2)c(=O)n1 [DECITABINE]
In short: as §1

[4] = compound: CS(=O)(=O)CCNCc1ccc(-c2ccc3ncnc(Nc4ccc(OCc5cccc(F)c5)c(Cl)c4)c3c2)o1 [LAPATINIB]
In short: as §1

[5] = compound: CN1CC[C@H](c2c(O)cc(O)c3c(=O)cc(-c4ccccc4Cl)oc23)[C@H](O)C1 [FLAVOPIRIDOL]
In short: as §1

[6] = compound: O=c1[nH]cc(F)c(=O)[nH]1 [FLUOROURACIL]
In short: as §1

[7] = compound: COc1ccc(C2=N[C@@H](c3ccc(Cl)cc3)[C@@H](c3ccc(Cl)cc3)N2C(=O)N2CCNC(=O)C2)c(OC(C)C)c1 [NUTLIN3]
In short: as §1

[8] = compound: CN(C)CC[C@H](CSc1ccccc1)Nc1ccc(S(=O)(=O)NC(=O)c2ccc(N3CCN(Cc4ccccc4-c4ccc(Cl)cc4)CC3)cc2)cc1[N+](=O)[O-] [ABT-737]
In short: as §1

[9] = compound: CS(=O)(=O)c1ccc(C(=O)Nc2ccc(Cl)c(-c3ccccn3)c2)c(Cl)c1 [VISMODEGIB]
In short: as §1

[10] = compound: COc1cccc2c1C(=O)c1c(O)c3c(c(O)c1C2=O)C[C@@](O)(C(=O)CO)C[C@@H]3O[C@H]1C[C@H](N)[C@H](O)[C@H](C)O1 [DOXORUBICIN]
In short: as §1

[11] = compound: CC[C@@H](C(=O)[C@@H](C)[C@@H](O)[C@H](C)[C@@H]1O[C@@H]([C@@H](CC)C(=O)O)CC[C@@H]1C)[C@H]1O[C@]2(C=C[C@@H](O)[C@]3(CC[C@@](C)([C@H]4CC[C@](O)(CC)[C@H](C)O4)O3)O2)[C@H](C)C[C@@H]1C [SALINOMYCIN]
In short: as §1

[12] = compound: CCN(CC)CCCCNc1ncc2cc(-c3cc(OC)cc(OC)c3)c(NC(=O)NC(C)(C)C)nc2n1
In short: as §1

[13] = compound: Oc1ccc(/C=C/c2cc(O)cc(O)c2)cc1 [RESVERATROL]
In short: as §1

HS57T LUNG
area under dose-response curve [1]: 1.35 | area under dose-response curve [2]: 2.78 | area under dose-response curve [3]: 3.05 | area under dose-response curve [4]: 3.42 | area under dose-response curve [5]: 2.07 | area under dose-response curve [6]: 3.24 | area under dose-response curve [7]: 3.4 | area under dose-response curve [8]: 3.45 | area under dose-response curve [9]: 3.29 | area under dose-response curve [10]: 1.22 | area under dose-response curve [11]: 2.57 | area under dose-response curve [12]: 2.66 | area under dose-response curve [13]: 3.35
